Assay results from article PMC11035414, “A comparison study of dynamic [^18F]Alfatide II imaging and [^11C]MET in orthotopic rat models of glioblastoma” (Journal of Cancer Research and Clinical Oncology, 2024).

How the values were obtained:
[1] = system: orthotopic GBM rat models (C6 glioma cells); assay: Dynamic PET/MR imaging, semi-quantitative analysis (SUVmean, TNR, time-activity curves); details: in vivo
Procedure: C6 glioma cells from GuYan Biotech Co., Ltd. (Shanghai, China) were cultured in DMEM at 37 °C and 5% CO2. After two generations of cell culture, C6 cells were trypsinized and resuspended at the concentration of 1 × 10^7 cells/mL to prepare GBM model. […] After the hair on the top of the head was cut off, a small hole with a diameter of about 2 mm was drilled at the intersection of the left side of sagittal suture 3 mm and the front side of coronal suture 1 mm. […] After administering the injection, the syringe was carefully withdrawn. The burr hole was then sealed with bone wax, followed by suturing the skin closed. […] Simultaneous dynamic PET and MRI was performed with 150 mm field of view for whole-body mouse imaging. For [^18[…] imaging, the rat models received the intravenous bolus injection of 13.0 ± 2.1 MBq of the radiotracer. […] We conducted [^11C]MET and [^18[…] scans on 20 rats, with a time interval of no more than 48 h between the scans using the two tracers. […] On the PET image with both radiotracers, the MRI-based volume-of-interest (VOI) was manually delineated encompassing glioblastoma. […] The following parameters were extracted from TACs: time to peak (TTP) and slope of curve.

[2] = system: C6 glioblastoma-bearing rats; assay: Ex vivo biodistribution study (γ counter); details: rat, in vivo
Procedure: Biodistribution study: […] The tumors and major tissue organs (blood, brain, heart, lungs, liver, spleen, blander, kidneys, bowel, muscle, femur and tumor) were collected. Tissues and organs were washed with normal saline and dried, and weighed using an electronic scale. The radioactivity counts of tissues and organs were measured with a γ counter, and the corresponding radioactivity value (%ID/g) was calculated after time attenuation correction.

[11CH3]SCC[C@H](N)C(=O)O [[^11C]MET, [^11C]methionine]
SUVmean in contralateral normal brain tissue [1]: 0.39 ± 0.12
tumor-to-normal brain ratio (TNR) [1]: 2.91 ± 0.81
normal organ(s) with the highest uptake, ex vivo [2]: liver
